Data set [1] has as its system OCI-LY3 IL6. Put plainly: MALT-1 Cell IL-6 AlphaLISA Assay. The following applies: Homo sapiens; OCI-LY3 cells, 48 hours incubation; read-out: OCI-LY3 IL6 48 hour Inhibition EC50. Type of data set: cell-based. The method, then: The following MALT-1 Cell Interleukin-6 (IL-6) AlphaLISA assay was conducted using a Perkin Elmer® IL-6 AlphaLISA® detection kit (PE AL223). The IL-6 detection assay is a homogeneous immunoassay that detects human IL-6 present in the cell culture medium in the MALT-1 dependent human ABC-DLBCL cell line, OCI-LY3. Compounds were pre-dispensed into Black 384w microtiter plates (Greiner, 781090) from 30 μM to 1.5 nM. Viable OCI-LY3 cells were then seeded on top of compounds at a seeding density of 50,000 cells/mL. Plates were then placed into 37° C. incubators for 48 hours. After 48 hours incubation, 2 μL of cell medium from each well was transferred into white ProxiPlates™ (PE 6008289). A fresh mix of AlphaLISA Acceptor beads (10 μg/mL) and Biotinylated IL-6 Antibody (1 nM) was made in AlphaLISA Immunoassay buffer and added to all wells (4 μL). The plates were incubated for 60 minutes at room temperature. Streptavidin donor beads (40 μg/mL) were prepared using the assay buffer and added to all wells (5 The plates were incubated for 30 minutes at room temperature and read using PE EnVision® reader. Results are shown in Table 3.
In general terms: Bead proximity is the source of the signal in Alpha formats.

Data set [2] deals with human MALT-1 protein (Homo sapiens (Human), UniProt Q9UDY8). Briefly: MALT-1 Biochemical Assay (Quench-FRET enzyme assay). The following applies: human MALT-1 6 nM, substrate 2 μM, 40 min preincubation. The source says:
A Quenched Fluorescence Resonance Energy Transfer (Quench-FRET) enzyme assay was used to test the ability of exemplary MALT-1 inhibitors Example 1 to Example 39 to inhibit the cleavage of a MALT1 specific quenched fluorescent substrate of sequence [TAMRA-PEG2-Leu-Val-Ser-Arg-Gly-Ala-Ala-Ser-PEG2-K(QSY7) by human MALT-1 protein; where TAMRA is 6-carboxytetramethylrhodamine, PEG2 is 2-(2-(2-aminoethoxy)ethoxyamide linker, QSY7 is a non-fluorescent quenching dye (Thermo-Fisher catalog #Q10193). The assay was performed by pre-dispensing compounds into 384 well Proxiplates™ (PE 6008289). Human MALT-1 (6 nM) was prepared using the assay buffer (25 mM HEPES pH 7.5, 1 mM ethylenediaminetetraacetic acid, 0.8 M sodium citrate, 0.005% Bovine serum albumin (BSA), 2 mM dithiothreitol (DTT)) and added to the compound plates. The plates were incubated 40 minutes at room temperature. The reaction was carried out by adding the substrate (2 μM) to the plates and incubating for 60 minutes at room temperature. A fluorescence readout was then measured using a PE EnVision® reader (Ex.535/Em.590). […] EC50 is defined as the half maximal effective concentration of compound to inhibit MALT-1 protease activity.

For data set [3], the system named is CYP 3A4 mRNA. Briefly: CYP3A4 Induction Assay (qPCR, human hepatocytes). The following applies: 10 μM compound, relative to rifampicin 10 μM. The class given is in vitro ADME. The method, then:
(§1) CYP induction by compounds of the Examples was evaluated in vitro by determining the expression levels of CYP 3A4 mRNA using the qPCR (quantitative polymerase chain reaction) assay. On day one, cryopreserved human hepatocytes were thawed in prewarmed (37° C.) thawing medium (cryopreserved hepatocyte recovery medium, Gibco™ CM 7000; Thermo Fisher Scientific), centrifuged (1000 g for 10 minutes) and resuspended in plating medium (Gibco™ CM3000—Williams Medium E supplemented with hepatocytes plating supplement pak-serum containing; Thermo Fisher Scientific). Cells were counted by trypan blue exclusion using a hemocytometer and adjusted to a cell density of […]. Thereafter, […] of cell suspension was aliquoted per well in a 96-well plate, resulting in 60,000 cells/well. Plates were shaken in the north-south and east-west direction during plating. Plated cells were incubated at 37° C/5% CO2 in a humidified cell culture incubator for 4-6 hours. During this time, incubation medium (Gibco™ CM4000, cell maintenance supplement pack; Thermo Fisher Scientific) was mixed with Gibco™ Geltrex™ (Thermo Fischer Scientific) at the appropriate GeltrexTM protein concentration. Following recovery, medium was removed from cells and replaced with freshly prepared incubation medium. Cells were incubated overnight in a cell culture incubator (37° C./5% CO2).
(§2) The next day the incubation medium was prepared by combining the hepatocyte maintenance supplement pack with Williams Medium E. The medium was warmed to 37° C. 1000× dimethyl sulfoxide compound stocks of the compounds of the Examples were prepared to the desired concentrations. 10 mM compound stocks in dimethyl sulfoxide were diluted (1 μL to 1 mL CM4000; final concentration=10 μM). Overlay medium was aspirated and […] dose solution added to the desired labeled 96 well plate. Cells were then dosed with compound (10 μM) and prototypical induces at the targeted concentrations either 50 i.tM for omeprazole (Sigma 0104/lotBCBF-2161V) or 10 i.tM for rifampicin (Sigma R3501/lot 011M1159V). A negative control, probenecid, was dosed at 10 i.tM (Sigma P8761/lot 013K0148).
(§3) On day 3, RNA isolation was performed. All surfaces were cleaned using RNase RNAy. Total RNA was isolated using MagMAX Express 96 RNA Isolation System (Life Technologies, AM1830). Briefly, hepatocytes were washed once with 1X PBS (phosphate buffered saline). 145 μL of RNA Lysis Buffer was added to each well and each well was mixed by pipetting several times. Lysate was then transferred to a well of a 96 well Binding Plate. Samples were then mixed with 20 μL magnetic beads coming from the kit. RNA bound to beads was then captured by the magnetic tip manifold and beads were washed with the wash solution. Samples were treated with TURBOTmDNase. After TURBOTmDNase treatment, RNA was rebound to beads and washed with the provided wash buffer an additional two times. Beads are then dried, and RNA was eluted with 50 μL elution buffer. The eluted mRNA was transferred from the wells to RNase-free sealable microtiter plates and stored at -80° C. until use.
(§4) Following mRNA isolation, reverse transcription (RT) reactions were performed using TaqmanTm Reverse Transcription Reagents (ThermoFisher Scientific). RT master mix was prepared by mixing 2.5 μL 10× RT buffer, 5.5 μL 25 mM MgCl2, 5μL deoxyNTP mixture, 1.25 50 mM random hexamers, 0.5 μL 2× RNAse inhibitor, 0.625 μL multiscript RTase (50U/μL) and 0.625 μL water. An aliquot of RT mix (16 μL) and an aliquot of mRNA sample (9 μL) was added to each well of a 96-well plate. The SimpliAmpTM Thermal cycler PCR System VIIA7 from Applied Biosystems was used for reverse transcription under the following conditions: segment 1: 25° C. for 10 minutes; segment 2: 45° C. for 45 minutes; segment 3: 95° C. for 5 minutes; and segment 4: 4° C. hold; with 1 cycle for each segment. […]
A general note: In qPCR the cycle at which signal appears reflects the starting amount.

Data set [4] deals with CYP3A4 mRNA. Briefly: CYP3A4 Induction Assay (qPCR, human hepatocytes). Type of data set: in vitro ADME. The following applies: cryopreserved human hepatocytes (plated), 10 μM compound, mRNA fold over vehicle (0.1% DMSO). Here is the method: as §1, §2, §3, §4

The results in this text go back to patent publication US20230312601A1, “THIAZOLO[5,4-B]PYRIDINE MALT-1 INHIBITORS” (AbbVie Inc., priority 2022, published 2023).

Chain of human MALT-1 protein (Q9UDY8 whole entry): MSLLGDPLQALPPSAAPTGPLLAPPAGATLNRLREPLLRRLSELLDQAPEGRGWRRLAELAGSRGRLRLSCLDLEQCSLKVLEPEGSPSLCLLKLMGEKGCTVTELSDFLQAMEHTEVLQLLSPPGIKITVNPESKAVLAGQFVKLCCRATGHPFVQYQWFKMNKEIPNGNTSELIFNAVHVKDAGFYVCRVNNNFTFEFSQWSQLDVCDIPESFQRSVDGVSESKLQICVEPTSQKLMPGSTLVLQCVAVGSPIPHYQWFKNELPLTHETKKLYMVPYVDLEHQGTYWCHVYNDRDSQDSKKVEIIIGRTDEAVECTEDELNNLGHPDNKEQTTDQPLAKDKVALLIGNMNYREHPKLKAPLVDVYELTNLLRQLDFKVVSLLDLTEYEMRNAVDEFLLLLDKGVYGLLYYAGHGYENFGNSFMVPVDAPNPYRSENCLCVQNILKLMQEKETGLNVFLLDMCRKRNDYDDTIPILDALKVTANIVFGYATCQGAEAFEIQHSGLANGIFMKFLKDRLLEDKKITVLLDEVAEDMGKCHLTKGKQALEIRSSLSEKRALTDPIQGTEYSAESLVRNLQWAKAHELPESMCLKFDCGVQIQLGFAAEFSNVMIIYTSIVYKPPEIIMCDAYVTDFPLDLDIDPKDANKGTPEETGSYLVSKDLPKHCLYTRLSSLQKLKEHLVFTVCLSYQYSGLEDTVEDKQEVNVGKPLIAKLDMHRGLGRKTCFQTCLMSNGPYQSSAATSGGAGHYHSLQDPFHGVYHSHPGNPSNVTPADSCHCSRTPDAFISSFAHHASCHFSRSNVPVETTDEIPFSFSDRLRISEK

Usually EC50 stands for the concentration giving half of the maximal effect. The fold induction is the ratio of treated to control signal. Consider `CO[C@@H](C)c1c(Nc2c(F)cc([C@H](N(C)C(=O)C3CCS(=O)(=O)CC3)C(F)(F)F)cc2F)cnc2sc(C)nc12` [Example 9, N-{(1S)-1-[3,5-difluoro-4-({7-[(1S)-1-methoxyethyl]-2-methyl[1,3]thiazolo[5,4-b]pyridin-6-yl}amino)phenyl]-2,2,2-trifluoroethyl}-N-methyl-1,1-dioxo-1λ^6-thiane-4-carboxamide], for which the EC50 in data set [1] was found to be 140 nM; in data set [2], 102 nM. Further, the “CYP3A4 % of positive control (%)” value in data set [3] is given as “(−5.95) %”. The fold induction at 1 day, 10 µM in data set [4] is 0.548.

As for `CO[C@@H](c1c(Nc2ccc([C@H](N(C)C(=O)C3CCS(=O)(=O)CC3)C(F)(F)F)cc2)cnc2sc(C)nc12)C(F)F` [Example 5, N-{(1S)-1-[4-({7-[(1S)-2,2-difluoro-l-methoxyethyl]-2-methyl[1,3]thiazolo [5,4-b]pyridin-6-yl}amino)phenyl]-2,2,2-trifluoroethyl}-N-methyl-1,1-dioxo-1λ^6-thiane-4-carboxamide], the EC50 was 340 nM in data set [1] and 77 nM in data set [2]. The “CYP3A4 % of positive control (%)” value in data set [3] is given as “(15.3) %”. Also, the fold induction at 1 day, 10 µM in data set [4] stood at 1.77.

With `CO[C@@H](c1c(Nc2ccc([C@H](N(C)C(=O)C3CCN(C(=O)CO)CC3)C(F)(F)F)cc2)cnc2sc(C)nc12)C(F)F` [Example 32, N-{(1S)-1-[4({7-[(1S)-2,2-difluoro-1-methoxyethyl]-2-methyl[1,3]thiazolo [5,4-b]pyridin-6-yl}amino)phenyl]-2,2,2-trifluoroethyl}-1-(hydroxyacetyl)-N-methylpiperidine-4-carboxamide], the 50% effective concentration (EC50) was found to be 250 nM in data set [1] and 113 nM in data set [2]. In addition, in data set [3], the “CYP3A4 % of positive control (%)” value was “(2.56) %”. The fold induction at 1 day, 10 µM in data set [4] came out at 1.2.

With `CO[C@H](C)c1c(Nc2ccc([C@H](N(C)C(=O)C3CCS(=O)(=O)CC3)C(F)(F)F)cc2)cnc2sc(C)nc12` [Example 8, N-methyl-1,1-dioxo-N-{(1S)-2,2,2-trifluoro-1-[4-({7-[(1R)-1-methoxyethyl]-2-methyl[1,3]thiazolo [5,4-b]pyridin-6-yl}amino)phenyl]ethyl}-1λ^6-thiane-4-carboxamide], the figures for the concentration giving a half-maximal response (EC50) in data set [1] and in data set [2] were 70 nM and 99 nM, respectively. Also, in data set [3], the “CYP3A4 % of positive control (%)” value is on record as “(9.23) %”. Further, the fold induction at 1 day, 10 µM in data set [4] worked out at 1.53.

Turning to `CO[C@@H](C)c1c(Nc2ccc([C@H](N(C)C(=O)C3CCN(C(=O)C(O)CO)CC3)C(F)(F)F)cc2)cnc2sc(C)nc12` (stereo partly drawn) [Example 24, 1-(2,3-dihydroxypropanoyl)-N-methyl-N-{(1S)-2,2,2-trifluoro-1-[4-({7-[(1S)-1-methoxyethyl]-2-methyl[1,3]thiazolo[5,4-b]pyridin-6-yl}amino)phenyl]ethyl}piperidine-4-carboxamide], the concentration giving a half-maximal response (EC50) was 12200 nM in data set [1] and 979 nM in data set [2]. Besides, in data set [3], the “CYP3A4 % of positive control (%)” value was “(7.62) %”. Moreover, in data set [4], the fold induction at 1 day, 10 µM is 1.49.

With `CO[C@@H](C)c1c(Nc2ccc([C@H](N(C)C(=O)C3CCS(=O)(=O)CC3)C(F)(F)F)cc2)cnc2sc(C(F)F)nc12` [Example 15, N-{(1 5)-1-[4-({2-(difluoromethyl)-7-[(1S)-1-methoxyethyl][1,3]thiazolo[5,4-b]pyridin-6-yl}amino)phenyl]-2,2,2-trifluoroethyl}-N-methyl-1,1-dioxo-1λ^6-thiane-4-carboxamide], the concentration for a half-maximal effect (EC50) in data set [1] came to 300 nM; in data set [2], 103 nM. The “CYP3A4 % of positive control (%)” value in data set [3] is “(−4.74) %”. For the same molecule, the fold induction at 1 day, 10 µM in data set [4] was 0.413.

For the molecule `CO[C@@H](C)c1c(Nc2ccc([C@H](N(C)C(=O)C3CCN(C(=O)C(C)(C)O)CC3)C(F)(F)F)cc2)cnc2sc(C)nc12` [Example 23, 1-(2-hydroxy-2-methylpropanoyl)-N-methyl-N-{(1S)-2,2,2-trifluoro-1-[4-({7-[(1S)-1-methoxyethyl]-2-methyl[1,3]thiazolo[5,4-b]pyridin-6-yl}amino)phenyl]ethyl}piperidine-4-carboxamide], the figures for the 50% effective concentration (EC50) in data set [1] and in data set [2] were 210 nM and 139 nM, respectively. The “CYP3A4 % of positive control (%)” value in data set [3] is given as “(−4.35) %”. The fold induction at 1 day, 10 µM in data set [4] worked out at 0.677.

Turning to `CO[C@@H](C)c1c(Nc2ccc([C@@H](C(F)F)N(C)C(=O)C3CCN(C(C)=O)CC3)cc2)cnc2sc(C)nc12` [Example 29, 1-acetyl-N-{(1S)-2,2-difluoro-1-[4-({7-[(1S)-1-methoxyethyl]-2-methyl[1,3]thiazolo[5,4-b]pyridin-6-yl}amino)phenyl]ethyl}-N-methylpiperidine-4-carboxamide], the EC50 was 300 nM in data set [1] and 232 nM in data set [2]. Further, the “CYP3A4 % of positive control (%)” value in data set [3] is reported as “(27.8) %”. Further, the fold induction at 1 day, 10 µM in data set [4] turned out to be 3.29.

Regarding `CO[C@@H](C)c1c(Nc2ccc([C@H](N(C)C(=O)C3CCN(C(=O)[C@@H](C)O)CC3)C(F)(F)F)cc2)cnc2sc(C)nc12` [Example 25, 1-[(2R)-2-hydroxypropanoyl]-N-methyl-N-{(1S)-2,2,2-trifluoro-1-[4-({7-[(1S)-1-methoxyethyl]-2-methyl[1,3]thiazolo [5,4-b]pyridin-6-yl}amino)phenyl]ethyl}piperidine-4-c arboxamide], the EC50 was 250 nM in data set [1] and 67 nM in data set [2]. Besides, the “CYP3A4 % of positive control (%)” value in data set [3] is “(2.45) %”. Also, the fold induction at 1 day, 10 µM in data set [4] came out at 1.16.
